Experimental data: US8410178B2, “CIS 3,4-dihydroxy-2-(3-methylbutanoyl)-5-(3-methylbutyl)-4-(4-methylpentanoyl)cyclopent-2-en-1-derivatives, substantially enantiomerically pure compositions and methods” (KinDex Therapeutics, LLC, priority 2010, dated 2013)

How the values were obtained:
PPARγ = biological target: T1, PPARγ (Homo sapiens, UniProt P37231); assay: PPARγ luciferase reporter assay; type: cell-based
T1 sequence (P37231 1-505): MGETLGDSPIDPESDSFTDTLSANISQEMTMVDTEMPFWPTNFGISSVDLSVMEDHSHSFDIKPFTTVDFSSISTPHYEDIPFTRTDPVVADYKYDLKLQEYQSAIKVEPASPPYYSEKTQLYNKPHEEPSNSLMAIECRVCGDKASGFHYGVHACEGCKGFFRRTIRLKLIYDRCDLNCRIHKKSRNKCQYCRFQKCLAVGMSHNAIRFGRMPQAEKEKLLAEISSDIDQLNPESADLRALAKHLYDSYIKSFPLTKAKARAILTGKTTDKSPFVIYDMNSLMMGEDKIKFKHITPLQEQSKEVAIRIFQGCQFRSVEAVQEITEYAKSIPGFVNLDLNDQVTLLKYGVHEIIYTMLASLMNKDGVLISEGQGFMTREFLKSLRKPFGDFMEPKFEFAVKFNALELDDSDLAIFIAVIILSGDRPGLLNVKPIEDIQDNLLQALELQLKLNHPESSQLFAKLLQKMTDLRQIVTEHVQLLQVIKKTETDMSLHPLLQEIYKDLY
Description: (§1) The functional effect of (+)-KDT501 on PPARα, PPARδ, and PPARγ activity was evaluated using a PPAR reporter assay (INDIGO Biosciences, PA). This assay utilizes non-human mammalian cells engineered to provide constitutive high level expression of PPARα, PPARδ, or PPARγ and containing a luciferase report gene specific to the appropriate PPAR. Following activation by agonist binding, PPAR induces expression of the luciferase reporter gene. Luciferase activity therefore provides a surrogate for measuring PPAR activity in agonist-treated cells.
(§2) Reporter cells were plated on a 96-well plate at 100 μL per well, and 100 μL of (+)-KDT501 at various final concentrations (25, 12.5, 6.25, 3.125, 1.56 and 0.78 μM) was added to each well. […] 0.1% DMSO was also used as a negative control for each assay. Plates are incubated for 20 hours in a humidified incubator at 37° C. and 5% CO2. After incubation, cell medium was discarded and the cells were treated with 100 μL of luciferase detection reagent for 15 minutes. Plates were analyzed using a luminometer (Victor2, Perkin Elmer). Average relative light unit (RLU) and standard deviation were analyzed using GraphPad Prism.
The PPAR activity assays were repeated as described above using both (+)-KDT501(12.5, 6.25, 3.125, 1.56, and 0.78 μM) and (−)-KDT501 (25, 12.5, 6.25, 3.125, 1.56, and 0.78 μM).

PPARα = biological target: T2, PPARα (Homo sapiens, UniProt Q07869); assay: PPARα luciferase reporter assay; type: cell-based; conditions: reporter cells, 20 hours
T2 sequence (Q07869 1-468): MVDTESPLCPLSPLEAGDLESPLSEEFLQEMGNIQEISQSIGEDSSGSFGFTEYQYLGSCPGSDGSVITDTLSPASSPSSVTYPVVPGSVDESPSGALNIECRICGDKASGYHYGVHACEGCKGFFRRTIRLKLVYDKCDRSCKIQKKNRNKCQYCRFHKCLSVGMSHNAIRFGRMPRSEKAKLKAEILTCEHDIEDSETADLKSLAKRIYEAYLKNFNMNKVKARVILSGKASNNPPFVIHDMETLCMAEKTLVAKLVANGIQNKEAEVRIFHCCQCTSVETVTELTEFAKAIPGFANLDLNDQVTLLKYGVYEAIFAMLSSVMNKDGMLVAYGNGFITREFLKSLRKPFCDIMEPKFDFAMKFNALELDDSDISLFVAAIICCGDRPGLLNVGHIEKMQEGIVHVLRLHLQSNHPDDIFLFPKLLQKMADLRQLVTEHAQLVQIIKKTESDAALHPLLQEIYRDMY
Description: as §1, §2

[1] = biological target: T3, angiotensin II receptor type II (AGTR2) (Homo sapiens, UniProt P50052); assay: Competitive binding to AGTR2 ([125I]CGP 42112A); conditions: binding target AGTR2; competitor ligand Angiotensin-II
T3 sequence (P50052 1-363): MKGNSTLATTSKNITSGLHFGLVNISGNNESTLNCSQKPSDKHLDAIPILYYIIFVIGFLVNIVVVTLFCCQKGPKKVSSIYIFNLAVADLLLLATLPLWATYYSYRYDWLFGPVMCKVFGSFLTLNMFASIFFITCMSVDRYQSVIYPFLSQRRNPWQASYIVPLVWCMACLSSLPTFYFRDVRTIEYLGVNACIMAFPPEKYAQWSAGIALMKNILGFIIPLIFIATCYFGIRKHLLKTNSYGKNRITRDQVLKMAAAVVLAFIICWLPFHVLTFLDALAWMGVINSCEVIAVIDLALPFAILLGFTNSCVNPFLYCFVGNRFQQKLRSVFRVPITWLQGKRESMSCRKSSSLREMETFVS

[2] = biological target: T4, peroxisome proliferator-activated receptor gamma (PPARγ) (Homo sapiens, UniProt P37231); assay: Competitive binding to PPARγ ([3H]rosiglitazone)
T4 sequence (P37231 1-505): T1 sequence (P37231 1-505)

Human DAPK1 = Human DAPK1 (Homo sapiens, UniProt P53355); assay: DAPK1 activity, cell free kinase assay; type: biochemical; conditions: cell free assay
Description: The effect of (+)-KDT501 and (−)-KDT501 on death-associated protein kinase 1 (DAPK1) activity was evaluated.
Human DAPK1 was incubated with 8 mM MOPS, pH 7.0, 0.2 mM EDTA, 250 μM ZIP peptide substrate ([…]), 10 mM MgOAc, and [γ-^33P-ATP] (specific activity approximately 500 cpm/pmol, concentration as required). (+)-KDT501 or (−)-KDT501 at varying concentrations (100, 30, 10, 1, 0.3, 0.1, 0.03, 0.01 μM) were added to the reaction mixture. The reaction was initiated by addition of the MgATP mix. After incubation for 40 minutes at room temperature, the reaction was stopped by addition of 3% phosphoric acid solution. 10 μL of reaction mixture was spotted onto a P30 filtermat, washed three times for five minutes in 75 mM phosphoric acid and once in methanol prior, then dried and subjected to scintillation counting.

PPARδ = biological target: T5, PPARδ (Homo sapiens, UniProt Q03181); assay: PPARδ luciferase reporter assay; type: cell-based; conditions: reporter cells, 20 hours
T5 sequence (Q03181 1-441): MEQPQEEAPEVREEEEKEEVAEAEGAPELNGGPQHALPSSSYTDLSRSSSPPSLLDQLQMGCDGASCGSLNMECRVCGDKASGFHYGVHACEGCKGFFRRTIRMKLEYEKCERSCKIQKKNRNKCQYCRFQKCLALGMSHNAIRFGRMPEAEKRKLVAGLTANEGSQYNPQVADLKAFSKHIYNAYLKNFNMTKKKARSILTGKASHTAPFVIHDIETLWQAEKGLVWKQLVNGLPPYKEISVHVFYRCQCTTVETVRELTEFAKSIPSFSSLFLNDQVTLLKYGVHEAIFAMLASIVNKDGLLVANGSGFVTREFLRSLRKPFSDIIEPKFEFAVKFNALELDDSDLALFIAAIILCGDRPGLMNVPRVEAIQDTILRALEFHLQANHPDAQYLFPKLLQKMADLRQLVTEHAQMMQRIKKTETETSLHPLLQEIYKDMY
Description: as §1, §2

Sequence of Human DAPK1 (P53355 whole entry): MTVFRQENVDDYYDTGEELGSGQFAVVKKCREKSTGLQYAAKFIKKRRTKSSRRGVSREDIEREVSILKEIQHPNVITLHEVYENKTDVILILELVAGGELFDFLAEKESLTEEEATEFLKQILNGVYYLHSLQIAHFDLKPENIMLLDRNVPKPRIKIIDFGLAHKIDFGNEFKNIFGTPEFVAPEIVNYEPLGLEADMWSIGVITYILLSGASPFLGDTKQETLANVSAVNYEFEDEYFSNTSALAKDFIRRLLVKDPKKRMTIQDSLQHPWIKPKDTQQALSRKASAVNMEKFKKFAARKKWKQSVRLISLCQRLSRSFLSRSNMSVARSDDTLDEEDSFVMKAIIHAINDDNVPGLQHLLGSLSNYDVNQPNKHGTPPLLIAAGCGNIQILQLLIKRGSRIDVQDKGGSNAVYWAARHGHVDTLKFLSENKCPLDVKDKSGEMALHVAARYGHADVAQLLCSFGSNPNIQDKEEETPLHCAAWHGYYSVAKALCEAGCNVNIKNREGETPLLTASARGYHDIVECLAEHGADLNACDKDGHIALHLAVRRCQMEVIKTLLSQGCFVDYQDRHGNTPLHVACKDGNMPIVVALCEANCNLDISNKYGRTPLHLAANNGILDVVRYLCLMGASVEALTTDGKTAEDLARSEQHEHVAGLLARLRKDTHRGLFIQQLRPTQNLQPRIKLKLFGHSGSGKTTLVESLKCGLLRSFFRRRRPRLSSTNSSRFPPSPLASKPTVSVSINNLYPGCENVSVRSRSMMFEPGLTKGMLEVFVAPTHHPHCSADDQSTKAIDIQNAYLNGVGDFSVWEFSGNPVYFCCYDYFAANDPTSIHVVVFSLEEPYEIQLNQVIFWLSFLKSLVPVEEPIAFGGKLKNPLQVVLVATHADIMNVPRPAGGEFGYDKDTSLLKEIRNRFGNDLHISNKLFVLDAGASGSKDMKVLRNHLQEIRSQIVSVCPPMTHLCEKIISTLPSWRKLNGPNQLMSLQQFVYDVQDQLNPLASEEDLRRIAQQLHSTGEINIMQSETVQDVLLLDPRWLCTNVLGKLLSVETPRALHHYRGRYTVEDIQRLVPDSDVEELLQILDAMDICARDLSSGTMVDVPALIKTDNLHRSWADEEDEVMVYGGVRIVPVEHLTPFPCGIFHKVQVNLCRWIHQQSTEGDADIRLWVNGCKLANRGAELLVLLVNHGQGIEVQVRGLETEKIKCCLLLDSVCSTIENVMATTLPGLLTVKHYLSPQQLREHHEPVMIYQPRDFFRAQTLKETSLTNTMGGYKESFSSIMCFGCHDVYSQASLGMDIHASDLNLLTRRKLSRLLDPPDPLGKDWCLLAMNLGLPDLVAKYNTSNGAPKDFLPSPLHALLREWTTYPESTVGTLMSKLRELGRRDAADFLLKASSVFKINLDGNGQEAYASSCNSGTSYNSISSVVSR

PPARγ reporter activity (RLU) (PPARγ; concentration of test compound 3.13 μM): 547 RLU
PPARγ reporter activity (RLU) (PPARγ; concentration of test compound 6.25 μM): 972 RLU
PPARγ reporter activity (RLU) (PPARγ; concentration of test compound 12.5 μM): 2407 RLU
PPARγ reporter activity (RLU) (PPARγ; concentration of test compound 25 μM): 4244 RLU
PPARα activity (PPARα): little or no effect
IC50 [1]: 32 µM
Ki [1]: 16 µM
nH [1]: 0.9
IC50 [2]: 30 µM
Ki [2]: 16 µM
nH ([2]; binding target PPARγ, competitor ligand Rosiglitazone): 1.1
IC50 (Human DAPK1): 40.9 µM
PPARδ activity (PPARδ): little or no effect
Compound: CC(C)CCC(=O)[C@]1(O)C(O)=C(C(=O)CC(C)C)C(=O)[C@H]1CCC(C)C [(−)-KDT501]
PPARγ activity (PPARγ; reporter cells, 20 hours): increased PPARγ activity, but to a significantly lesser degree than (+)-KDT501
